Measurements taken from paper PMC11211329, “Phage-encoded bismuth bicycles enable instant access to targeted bioactive peptides” (Communications Chemistry, 2024).

Test system: naïve three-cysteine phage library
Assay: Plaque-forming assay, effect of bicyclisation reagent on phage infectivity
Format: cell-based, M13 bacteriophage
Settings: 120 μM, 5 min exposure
Experimental: bismuth(III). The reaction mixture was vortexed briefly once more and incubated at room […]
Modification with bismuth tripotassium dicitrate (gastrodenol)
Bismuth tripotassium dicitrate (gastrodenol) in ultrapure sterile water (50 mM) was added to the reduced phage solution while gently vortexing to a final volume of 1040 μL to obtain a final concentration of 120 μM bismuth(III). The reaction mixture was vortexed briefly once more and incubated at room temperature for 5 min.
Modification with sodium arsenite (NaAsO2)
Sodium arsenite (NaAsO2) in ultrapure sterile water (50 mM) was added to the reduced phage solution while gently vortexing to a final volume of 1040 μL to obtain a final concentration of 120 μM arsenic(III). The reaction mixture was vortexed briefly once more and incubated at room […]
An overnight culture of Escherichia coli ER2738 (New England Biolabs, E4104, USA), a strain commonly used for phage display, was prepared by growing the bacteria in tetracycline containing LB media at 37 °C for 16 h at 220 rpm. Aliquots of 3 mL of melted top agar were transferred into sterile polystyrene tubes (Corning, 352051, USA) and heated up to 50 °C on a dry bath (Thermo Fisher, 88870004, USA) until ready to use. A dilution series of the phage library was prepared as required, at a final volume of 1 mL, whereby a 10 μL portion of each phage dilution was added to 200 μL of the bacterial overnight culture, incubated for 5 min and transferred fully into a tube containing 3 mL top agar. The contents in the tube were gently mixed by vortexing and poured entirely on a warm LB/IPTG/X-Gal plate, allowing the top agar-mixture to spread evenly across the plate. The plate was allowed to solidify and left in an incubator oven overnight at 37 °C. The number of plaques was counted by selecting plates with plaques separated at a countable level.
The concentration of the original solution was then calculated in pfu/mL using the following equation (Supplementary Equation 1).
Supplementary Equation 1.
concentration of original phage library solution = number of plaques ∙ dilution factor [pfu/mL]
Effect of bicyclisation reagent on phage infectivity
To evaluate the impact of bismuth(III) and arsenic(III) on the infectivity of the naïve three-cysteine phage library, phage titres were measured both before and after the addition of the metal(loid).
Accordingly, for each modification experiment three 1000 μL aliquots of ~1011 pfu/mL of freshly amplified naïve phage library in PBS were set aside and subjected to a plaque-forming assay to determine their titre. Next, these library aliquots were individually exposed to either 120 μM bismuth(III) from BiBr3 (50 mM DMSO) or gastrodenol (50 mM in ultrapure water) or 120 μM arsenic(III) from NaAsO2 (50 mM in ultrapure water), with each reagent being used for the modification of three library aliquots. During addition of the thiophilic element, the reaction mixtures were briefly vortexed and incubated at room temperature for 5 min. Excess reagent was removed from the modified phage library solution using spin desalting columns (Thermo Fisher, 89883, USA) at 2000 × g for 2.5 min. The titre of the modified phage solution was subsequently determined using the plaque-forming assay, which was also performed in triplicate. A parallel experiment was conducted using the addition of PBS as the control. Phage titres before and after their respective modification were plotted in GraphPad Prism 10 (Dotmatics, USA) […]
Supplementary Fig. 20. […]

Structure (SMILES)	effect on phage infectivity	effect on phage infectivity (listed as As(III))
[Bi+3] [Bi(III)]	uncompromised	–
[Br][Bi]([Br])[Br] [BiBr3, bismuth tribromide]	no relevant negative effect	–
O=[As][O-].[Na+] [NaAsO2, sodium arsenite]	no relevant negative effect	uncompromised
O=C([O-])CC(O)(CC(=O)[O-])C(=O)[O-].O=C([O-])CC(O)(CC(=O)[O-])C(=O)[O-].[Bi+3].[K+].[K+].[K+] [gastrodenol, bismuth tripotassium dicitrate]	no relevant negative effect	–
